Data from ChEMBL document CHEMBL1201862, “PubChem BioAssay data set” (2004).
Active and inactive are the calls of the source.

Columns and labels:
Nonstructural protein 1 = Nonstructural protein 1 (Influenza A virus, UniProt Q194T2); format: functional, Influenza A virus (A/California/07/2009(H1N1))
[1] = viability loss in THP-1 monocytes – THP-1 cells, cytotoxicity control for Vif-APOBEC3G degradation inhibitor project, dose response (AID 1117359); format: functional; conditions: THP-1
[2] = viability loss in HeLa cells – cytotoxicity control for MgcRacGAP inhibitor project, dose response (AID 624300); format: functional
Mu-type opioid receptor = Mu-type opioid receptor (Homo sapiens, UniProt P35372); assay: (§1) Counterscreen for agonists of heterodimerization of the mu 1 (OPRM1) and delta 1 (OPRD1) opioid receptors: Luminescence-based cell-based high throughput dose response assay to identify agonists of OPRM1 homodimerization.; format: functional
[3] = target: Delta-type opioid receptor (Homo sapiens, UniProt P41143); assay: as §1, with “of OPRD1” for “of OPRM1”, “homodimerization. [Related pubchem assays (depositor defined):AID504326, AID504355, AID504692, AID504904, AID504905]” for “homodimerization.”; format: functional
[4] = target: T1, Rac GTPase-activating protein 1 (Homo sapiens, UniProt Q9H0H5); assay: blockers of MgcRacGAP-driven Rac1 GTP hydrolysis – biochemical, ADP Hunter fluorescence, primary and confirmatory, confirmation (AID 624330); format: functional
T1 sequence (Q9H0H5 whole entry): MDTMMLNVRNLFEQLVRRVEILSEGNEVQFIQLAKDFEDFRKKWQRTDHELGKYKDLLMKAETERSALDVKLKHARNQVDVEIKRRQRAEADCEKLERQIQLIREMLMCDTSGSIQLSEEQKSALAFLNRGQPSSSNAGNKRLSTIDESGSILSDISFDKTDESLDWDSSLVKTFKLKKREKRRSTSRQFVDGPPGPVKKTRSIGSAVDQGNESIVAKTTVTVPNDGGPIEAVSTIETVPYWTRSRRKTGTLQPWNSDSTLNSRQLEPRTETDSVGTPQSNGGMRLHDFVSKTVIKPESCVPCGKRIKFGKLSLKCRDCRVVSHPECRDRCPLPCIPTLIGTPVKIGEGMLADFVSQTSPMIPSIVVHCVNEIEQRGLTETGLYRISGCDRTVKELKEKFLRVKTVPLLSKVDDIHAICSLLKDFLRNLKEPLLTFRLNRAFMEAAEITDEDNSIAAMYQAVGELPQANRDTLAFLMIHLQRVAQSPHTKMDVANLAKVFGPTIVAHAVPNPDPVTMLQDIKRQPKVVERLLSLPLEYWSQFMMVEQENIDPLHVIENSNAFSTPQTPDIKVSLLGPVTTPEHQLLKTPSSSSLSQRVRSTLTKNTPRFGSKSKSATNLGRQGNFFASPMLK

[5] = target: 5-hydroxytryptamine receptor 5A (Homo sapiens, UniProt P47898); assay: Counterscreen for agonists of OPRM1-OPRD1 heterodimerization: luminescence-based cell-based high throughput dose response assay to identify agonists of 5-hydroxytryptamine (serotonin) 5A receptor (HTR5A). [Related pubchem assays (depositor defined):AID504326, AID504355, AID504692, AID504904, AID504905]; format: functional
[6] = target: Glutathione-S-transferase (Schistosoma japonicum, UniProt Q26513); assay: GST-antibody interaction or FRET quenching – biochemical, TR-FRET, artefact control for Vif-APOBEC3G degradation inhibitor project, dose response (AID 1117362); format: functional
[7] = target: Beta-2 adrenergic receptor (Homo sapiens, UniProt P07550); assay: ADRB2 activation measured by internalization – cell-based, FAP fluorogen, flow cytometry, cherry pick 1, dose response (AID 588763); format: functional
Caspase-6 = target: T2, Caspase-6 (Homo sapiens, UniProt P55212); assay: inhibition of CASP6 peptide cleavage – biochemical, VEID-R110 fluorescence, cherry-pick, dose response (AID 720632)
T2 sequence (P55212 whole entry): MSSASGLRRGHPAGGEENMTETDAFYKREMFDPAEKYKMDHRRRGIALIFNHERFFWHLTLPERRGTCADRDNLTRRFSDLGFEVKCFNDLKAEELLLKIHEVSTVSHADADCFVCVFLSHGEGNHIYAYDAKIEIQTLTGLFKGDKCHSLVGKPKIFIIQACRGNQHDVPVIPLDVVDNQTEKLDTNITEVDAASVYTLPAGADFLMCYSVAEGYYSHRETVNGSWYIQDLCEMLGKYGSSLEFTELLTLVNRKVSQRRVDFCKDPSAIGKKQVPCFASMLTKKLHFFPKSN

[8] = blockade of melanocortin 4 receptor signaling – cell-based, plate reader, cherry pick, counter-screen for LGR2 antagonist project, dose response (AID 743444); format: functional;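 note: transfected HEK 293 cells stimulated with alpha-MSH peptide; potency of inhibitors of the alpha-MSH evoked signal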
[9] = target: T3, Bifunctional protein GlmU (Mycobacterium tuberculosis, UniProt P9WMN3); assay: Inhibitors of Mycobacterial Glucosamine-1-phosphate acetyl transferase (GlmU). Secondary screen.; parameters: species or system Mycobacterium tuberculosis H37Rv
T3 sequence (P9WMN3 whole entry): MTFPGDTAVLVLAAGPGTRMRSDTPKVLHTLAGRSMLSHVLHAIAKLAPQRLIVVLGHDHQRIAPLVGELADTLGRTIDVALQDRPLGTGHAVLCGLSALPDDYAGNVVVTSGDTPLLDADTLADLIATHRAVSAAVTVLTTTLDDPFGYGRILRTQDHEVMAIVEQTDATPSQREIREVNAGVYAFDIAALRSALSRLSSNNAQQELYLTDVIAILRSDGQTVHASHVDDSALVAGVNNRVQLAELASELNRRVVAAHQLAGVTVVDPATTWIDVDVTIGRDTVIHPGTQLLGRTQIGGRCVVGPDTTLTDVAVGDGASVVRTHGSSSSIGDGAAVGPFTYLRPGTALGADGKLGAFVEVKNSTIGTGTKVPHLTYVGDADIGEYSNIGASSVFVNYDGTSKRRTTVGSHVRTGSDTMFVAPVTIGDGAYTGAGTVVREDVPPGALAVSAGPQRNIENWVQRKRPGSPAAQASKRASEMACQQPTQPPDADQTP

[10] = target: T4, Voltage-gated N-type calcium channel alpha-1B subunit/Amyloid beta A4 precursor protein-binding family A member 1 (Homo sapiens, UniProt Q00975+Q02410); format: protein assay
[11] = target: T4, Voltage-gated N-type calcium channel alpha-1B subunit/Amyloid beta A4 precursor protein-binding family A member 1; format: protein assay; remark: listed apart in the source
[12] = blockers of bursicon-stimulated LGR2 cAMP reporter – cell-based, HEK293, CRE-luciferase reporter, cherry pick, set 2, dose response (AID 743343); format: functional;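 note: transfected cells were stimulated with diluted bursicon conditioned medium after compound addition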
[13] = target: Beta-adrenergic receptor kinase 1 (Homo sapiens, UniProt P25098); assay: aptamer displacement from bead-bound GRK2 – biochemical, cherry pick 1, bead flow cytometry, dose response (AID 504500)
HEK293 [14] = assay: EBV LMP1 TES2 canonical NF-kB signalling blockers – cell-based, HEK293, luciferase, cherry-pick, dose response (AID 588343); format: functional; conditions: Homo sapiens
[15] = target: Histone-lysine N-methyltransferase NSD2 (Homo sapiens, UniProt O96028); format: biochemical
[16] = Fluorescence polarization-based biochemical high throughput dose response assay for activators of the Protein Kinase A-R1A (PKA-R1A) complex. [Related pubchem assays (depositor defined):AID504704, AID504707, AID504799, AID504800]
[17] = Fluorescence polarization-based biochemical high throughput dose response assay for activators of the Protein Kinase A-R2B (PKA-R2B) complex. [Related pubchem assays (depositor defined):AID504700, AID504704, AID504796, AID504797]
[18] = HIV-1 AD8 envelope cell-cell fusion blockers – cherry-pick, dose response (AID 652062); format: functional, cell-based;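 note: luciferase signal from cell-cell fusion driven by HIV-1 clade B AD8 Env; potency is for inhibitors of fusion seen as a drop in luminescence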
[19] = off-target signal loss in HeLa-CEM21 co-culture – HeLa F-luc CTL cells, cherry-picked, counter-screen for HIV-1 Env fusion inhibitor project, dose response (AID 652040); format: functional, cell-based;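 note: potency for signal decrease marking cytotoxic or nonspecific inhibition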
[20] = non-specific 3'UTR reporter inhibition in Clone20-Shn3RL – cell-based, Renilla luciferase, cherry-picked, counter-screen for Shn3 inhibitor project, dose response (AID 624133); format: functional
[21] = luciferase reporter signal suppression in cells – H4 neuroglioma cells, luminescence, dose response (AID 1990); format: functional, cell-based
[22] = Luminescence Cell-Based Dose Response HTS to Identify Inhibitors of 5'UTR Stem-Loop Driven Prion Protein mRNA Translation in H4 Neuroglioblastoma Cells. [Related pubchem assays: 1827 (Project Summary), 1813 (Primary HTS)]; format: functional
Paired box protein Pax-8 = Paired box protein Pax-8 (Homo sapiens, UniProt Q06710); assay: PAX8 transcriptional activity inhibition in RMG-I – RMG-I cells, luciferase, cherry-pick, dose response (AID 687027); format: functional, cell-based;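 note: luciferase reporter driven by Pax8 target thyroperoxidase promoter measured by SteadyGlo luminescence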
[23] = target: Heat shock protein HSP 90-alpha (Homo sapiens, UniProt P07900); assay: Luminescence-based dose response biochemical high throughput screening assay for inhibitors of the Heat Shock Protein 90 (HSP90). [Related pubchem assays: 1831 (Summary AID.), 1846 (Confirmation screen.), 1789 (Primary screen.)]
[24] = viability loss in CEM21 cells – cell-based, CellTiter-Glo luminescence, cherry-picked, cytotoxicity control for viral fusion inhibitor project, dose response (AID 652042); format: functional;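 note: potency for signal decrease meaning cytotoxicity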
[25] = blockers of HIV-1 envelope-mediated cell-cell fusion – cherry-pick, dose response (AID 652057); format: functional, cell-based
[26] = blockers of HIV-1 ZM109 envelope-driven cell-cell fusion – HeLa effector, CEM target cells, luciferase, cherry-pick, dose response (AID 652058); format: functional, cell-based;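 note: luciferase signal from HIV-1 Env mediated cell-cell fusion of effector and target cells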
[27] = alpha-synuclein stem-loop luciferase translation blockers – H4 neuroglioma cells, luminescence, confirmation (AID 1988); format: functional, cell-based
[28] = loss of viability in HepG2 cells – cell-based, CellTiter-Glo, cherry-picked, cytotoxicity control for Shn3 inhibitor project, dose response (AID 624134); format: functional
[29] = target: Luciferin 4-monooxygenase (Photuris pensylvanica, UniProt Q27757); assay: inhibition of Cell Titer Glo luciferase signal – biochemical, luminescence, cherry-picks, counter-screen for HSF-1 reporter inhibitor project, dose response (AID 588847)
[30] = reduction of Shn3 3'UTR-driven luciferase in osteoblasts – cell-based, Clone20 osteoblasts, firefly luciferase, cherry-picked, dose response (AID 624132); format: functional;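 note: firefly luciferase luminescence from reporter carrying the Shn3 3'UTR in osteoblasts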
[31] = target: T5, Heat shock factor protein 1 (Mus musculus, UniProt P38532); assay: decrease of HSF1-responsive luciferase luminescence – cell-based, NIH3T3, dose retest, confirmation (AID 2382); format: functional;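 note: NIH3T3 fibroblasts with HSF1-driven luciferase reporter stressed by proteasome inhibitor MG132; luminescence from HSF1-driven luciferase expression after 8 hours of MG132 stress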
T5 sequence (P38532 whole entry): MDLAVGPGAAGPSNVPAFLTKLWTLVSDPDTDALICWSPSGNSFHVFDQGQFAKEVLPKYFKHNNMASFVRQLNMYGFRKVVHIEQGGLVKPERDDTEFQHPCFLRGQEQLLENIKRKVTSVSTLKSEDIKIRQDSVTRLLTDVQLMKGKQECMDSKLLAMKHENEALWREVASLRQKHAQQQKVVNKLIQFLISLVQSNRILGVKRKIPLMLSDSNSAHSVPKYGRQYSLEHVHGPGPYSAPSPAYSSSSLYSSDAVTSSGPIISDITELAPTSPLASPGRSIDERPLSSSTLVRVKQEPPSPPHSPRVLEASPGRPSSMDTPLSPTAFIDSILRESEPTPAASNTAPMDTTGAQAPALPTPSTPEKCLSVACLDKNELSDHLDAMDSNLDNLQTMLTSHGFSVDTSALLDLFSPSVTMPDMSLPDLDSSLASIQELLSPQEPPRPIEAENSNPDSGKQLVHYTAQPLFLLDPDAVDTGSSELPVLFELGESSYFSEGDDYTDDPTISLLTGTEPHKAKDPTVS

[32] = general cell-killing toxicity readout – plate reader, dry powder samples, cytotoxicity control for PAX8 inhibitor project, dose response (AID 743021); format: functional, cell-based
HEK293 [33] = assay: HEK293T cell viability loss, resazurin readout – resazurin fluorescence, cytotoxicity control for NF-kB activator project, SAR follow-up (AID 493251); format: functional, cell-based; conditions: Homo sapiens

T4 sequence (Q00975 whole entry): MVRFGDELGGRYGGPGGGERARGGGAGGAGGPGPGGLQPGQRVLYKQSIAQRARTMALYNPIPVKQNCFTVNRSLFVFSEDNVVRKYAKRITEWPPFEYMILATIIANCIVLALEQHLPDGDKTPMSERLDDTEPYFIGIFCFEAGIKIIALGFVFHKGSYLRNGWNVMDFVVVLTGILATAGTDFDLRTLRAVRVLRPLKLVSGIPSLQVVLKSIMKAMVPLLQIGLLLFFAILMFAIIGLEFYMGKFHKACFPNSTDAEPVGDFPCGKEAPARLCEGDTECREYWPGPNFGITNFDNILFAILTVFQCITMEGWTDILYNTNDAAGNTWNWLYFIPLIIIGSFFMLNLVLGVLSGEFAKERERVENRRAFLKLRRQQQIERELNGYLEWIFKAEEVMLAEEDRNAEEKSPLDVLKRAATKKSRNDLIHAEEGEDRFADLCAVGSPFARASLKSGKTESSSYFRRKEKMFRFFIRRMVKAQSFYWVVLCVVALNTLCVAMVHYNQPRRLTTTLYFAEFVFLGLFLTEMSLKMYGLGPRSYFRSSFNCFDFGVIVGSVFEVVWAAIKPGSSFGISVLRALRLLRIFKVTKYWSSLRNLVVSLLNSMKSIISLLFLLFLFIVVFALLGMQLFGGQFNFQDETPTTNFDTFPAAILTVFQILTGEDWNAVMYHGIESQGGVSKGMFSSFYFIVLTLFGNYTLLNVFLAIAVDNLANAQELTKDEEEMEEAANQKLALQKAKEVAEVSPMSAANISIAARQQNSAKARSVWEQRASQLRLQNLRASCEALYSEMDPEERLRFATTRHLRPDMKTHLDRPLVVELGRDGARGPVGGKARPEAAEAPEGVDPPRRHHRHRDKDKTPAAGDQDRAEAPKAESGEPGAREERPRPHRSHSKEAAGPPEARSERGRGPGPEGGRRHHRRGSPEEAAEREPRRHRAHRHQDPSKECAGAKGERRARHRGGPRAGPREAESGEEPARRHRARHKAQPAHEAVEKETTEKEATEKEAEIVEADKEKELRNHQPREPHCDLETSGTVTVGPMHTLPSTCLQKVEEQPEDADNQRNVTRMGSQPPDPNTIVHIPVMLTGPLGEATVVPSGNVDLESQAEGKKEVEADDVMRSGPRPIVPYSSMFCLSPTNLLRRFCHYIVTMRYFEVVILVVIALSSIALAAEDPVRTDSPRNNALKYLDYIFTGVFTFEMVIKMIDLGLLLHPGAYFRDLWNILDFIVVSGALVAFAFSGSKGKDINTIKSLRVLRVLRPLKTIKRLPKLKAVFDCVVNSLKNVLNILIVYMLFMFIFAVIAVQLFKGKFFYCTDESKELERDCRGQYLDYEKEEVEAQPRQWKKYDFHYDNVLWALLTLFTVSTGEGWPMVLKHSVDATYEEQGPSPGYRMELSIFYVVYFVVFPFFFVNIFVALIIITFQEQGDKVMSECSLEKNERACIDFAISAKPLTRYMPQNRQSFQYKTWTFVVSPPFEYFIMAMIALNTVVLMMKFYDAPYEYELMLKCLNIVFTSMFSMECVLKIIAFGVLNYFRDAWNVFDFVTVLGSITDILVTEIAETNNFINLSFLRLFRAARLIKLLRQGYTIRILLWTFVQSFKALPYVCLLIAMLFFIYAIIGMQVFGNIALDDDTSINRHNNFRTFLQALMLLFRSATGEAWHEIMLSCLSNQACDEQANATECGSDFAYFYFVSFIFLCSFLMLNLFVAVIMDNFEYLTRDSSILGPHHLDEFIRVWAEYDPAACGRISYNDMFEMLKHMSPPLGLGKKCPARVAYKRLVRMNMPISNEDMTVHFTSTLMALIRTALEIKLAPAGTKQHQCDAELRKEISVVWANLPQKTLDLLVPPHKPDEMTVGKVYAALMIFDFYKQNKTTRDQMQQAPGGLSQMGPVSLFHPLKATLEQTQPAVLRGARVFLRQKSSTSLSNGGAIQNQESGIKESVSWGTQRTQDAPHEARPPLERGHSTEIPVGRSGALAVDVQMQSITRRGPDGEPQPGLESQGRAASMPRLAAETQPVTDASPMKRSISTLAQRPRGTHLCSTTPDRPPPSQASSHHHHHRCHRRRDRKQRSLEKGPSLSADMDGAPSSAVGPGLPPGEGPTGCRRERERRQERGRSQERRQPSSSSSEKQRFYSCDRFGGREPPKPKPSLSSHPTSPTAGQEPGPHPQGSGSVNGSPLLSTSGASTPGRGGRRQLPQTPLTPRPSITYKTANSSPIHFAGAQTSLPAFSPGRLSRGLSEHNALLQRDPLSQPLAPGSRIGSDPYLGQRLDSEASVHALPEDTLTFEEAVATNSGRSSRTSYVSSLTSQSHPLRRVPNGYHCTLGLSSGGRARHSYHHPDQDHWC
T4 sequence (Q02410 whole entry): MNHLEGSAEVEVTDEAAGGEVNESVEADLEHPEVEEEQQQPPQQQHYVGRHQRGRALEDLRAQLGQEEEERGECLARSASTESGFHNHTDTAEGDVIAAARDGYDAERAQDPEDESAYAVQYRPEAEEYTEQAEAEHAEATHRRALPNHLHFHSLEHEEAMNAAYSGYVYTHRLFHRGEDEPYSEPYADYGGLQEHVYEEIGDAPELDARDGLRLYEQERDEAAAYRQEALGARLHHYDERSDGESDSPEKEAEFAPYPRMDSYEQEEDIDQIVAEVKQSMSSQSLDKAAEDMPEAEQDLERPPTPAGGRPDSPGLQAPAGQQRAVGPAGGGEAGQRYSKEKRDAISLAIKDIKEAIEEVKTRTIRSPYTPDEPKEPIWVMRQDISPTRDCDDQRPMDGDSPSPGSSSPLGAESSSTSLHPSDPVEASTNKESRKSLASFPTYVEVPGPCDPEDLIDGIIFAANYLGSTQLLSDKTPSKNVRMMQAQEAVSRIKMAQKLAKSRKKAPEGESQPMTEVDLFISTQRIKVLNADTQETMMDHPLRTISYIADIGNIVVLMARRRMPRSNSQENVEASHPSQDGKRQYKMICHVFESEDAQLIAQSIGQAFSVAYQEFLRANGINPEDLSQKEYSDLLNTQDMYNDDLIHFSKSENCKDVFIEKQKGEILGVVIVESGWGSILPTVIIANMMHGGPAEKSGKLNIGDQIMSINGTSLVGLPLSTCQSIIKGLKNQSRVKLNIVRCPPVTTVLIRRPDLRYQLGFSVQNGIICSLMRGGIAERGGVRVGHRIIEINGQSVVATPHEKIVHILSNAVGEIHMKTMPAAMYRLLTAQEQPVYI
Sequence of Beta-2 adrenergic receptor (P07550 whole entry): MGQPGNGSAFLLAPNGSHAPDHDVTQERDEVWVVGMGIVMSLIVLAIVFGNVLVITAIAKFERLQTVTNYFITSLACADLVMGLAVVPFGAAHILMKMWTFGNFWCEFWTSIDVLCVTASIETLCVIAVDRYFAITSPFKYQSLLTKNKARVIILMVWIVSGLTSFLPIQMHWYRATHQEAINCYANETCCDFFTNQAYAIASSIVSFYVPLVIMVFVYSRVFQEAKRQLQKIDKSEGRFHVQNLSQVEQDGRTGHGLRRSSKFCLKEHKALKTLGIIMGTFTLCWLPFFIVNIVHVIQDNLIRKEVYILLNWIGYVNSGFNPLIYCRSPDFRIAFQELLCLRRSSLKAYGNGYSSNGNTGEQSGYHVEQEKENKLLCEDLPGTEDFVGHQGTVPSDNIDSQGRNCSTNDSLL
Sequence of Beta-adrenergic receptor kinase 1 (P25098 whole entry): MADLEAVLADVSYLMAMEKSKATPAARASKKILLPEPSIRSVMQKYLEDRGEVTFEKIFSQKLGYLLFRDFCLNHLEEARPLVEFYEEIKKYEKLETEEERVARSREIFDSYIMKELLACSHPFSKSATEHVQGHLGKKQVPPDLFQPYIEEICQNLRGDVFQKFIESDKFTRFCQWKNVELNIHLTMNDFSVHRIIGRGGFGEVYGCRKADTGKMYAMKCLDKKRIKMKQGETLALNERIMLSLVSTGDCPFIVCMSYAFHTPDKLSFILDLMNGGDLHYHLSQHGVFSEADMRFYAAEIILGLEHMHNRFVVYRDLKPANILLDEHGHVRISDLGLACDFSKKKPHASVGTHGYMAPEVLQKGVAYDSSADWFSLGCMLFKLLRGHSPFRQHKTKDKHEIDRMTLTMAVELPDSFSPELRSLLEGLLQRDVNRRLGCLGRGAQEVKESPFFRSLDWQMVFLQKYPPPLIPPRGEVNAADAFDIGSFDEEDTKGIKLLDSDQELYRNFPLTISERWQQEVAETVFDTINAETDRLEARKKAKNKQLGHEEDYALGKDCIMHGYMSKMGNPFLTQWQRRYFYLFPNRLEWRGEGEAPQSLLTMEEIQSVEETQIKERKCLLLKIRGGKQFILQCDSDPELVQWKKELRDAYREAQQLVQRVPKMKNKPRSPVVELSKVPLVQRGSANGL
Sequence of Luciferin 4-monooxygenase (Q27757 whole entry): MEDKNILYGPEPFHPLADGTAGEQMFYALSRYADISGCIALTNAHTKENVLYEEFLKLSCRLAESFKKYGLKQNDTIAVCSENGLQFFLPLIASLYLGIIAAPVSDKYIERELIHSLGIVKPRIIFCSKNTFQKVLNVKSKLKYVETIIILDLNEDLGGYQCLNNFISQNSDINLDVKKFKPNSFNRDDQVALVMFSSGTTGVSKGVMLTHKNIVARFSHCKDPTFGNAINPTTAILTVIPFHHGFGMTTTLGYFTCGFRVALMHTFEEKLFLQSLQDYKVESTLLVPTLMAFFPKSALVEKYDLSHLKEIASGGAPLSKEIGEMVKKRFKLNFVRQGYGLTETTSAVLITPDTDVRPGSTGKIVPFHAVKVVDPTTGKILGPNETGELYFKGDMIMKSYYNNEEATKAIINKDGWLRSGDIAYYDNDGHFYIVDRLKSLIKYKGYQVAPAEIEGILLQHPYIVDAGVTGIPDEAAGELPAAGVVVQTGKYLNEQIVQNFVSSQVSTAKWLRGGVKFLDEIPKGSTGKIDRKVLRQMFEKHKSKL
Sequence of Nonstructural protein 1 (Q194T2 whole entry): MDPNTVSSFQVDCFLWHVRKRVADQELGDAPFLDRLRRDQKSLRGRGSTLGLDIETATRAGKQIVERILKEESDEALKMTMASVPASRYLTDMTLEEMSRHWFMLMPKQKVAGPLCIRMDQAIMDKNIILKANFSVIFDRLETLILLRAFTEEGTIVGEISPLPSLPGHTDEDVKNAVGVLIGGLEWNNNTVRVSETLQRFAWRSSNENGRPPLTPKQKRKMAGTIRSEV

Structure (SMILES): CCN(CC)Cc1cc(Nc2c3ccccc3nc3c4ccccc4n(C)c23)cc(CN(CC)CC)c1O
- IC50 (Nonstructural protein 1): 17.9 µM (active)
- CC50 [1]: 11 µM (active)
- CC50 [2]: 80 µM (active)
- EC50 (Mu-type opioid receptor): > 92.6 µM (inactive)
- EC50 [3]: 1.49 µM (active)
- IC50 [4]: 22.1 µM (active)
- EC50 [5]: > 92.6 µM (inactive)
- IC50 [6]: 59.5 µM (active)

Structure (SMILES): CC1=C(C(=O)Nc2ccc(C(=O)N3CCN(c4ccccc4F)CC3)cc2)SCCO1
- EC50 [7]: 3.01 µM (active)

Structure (SMILES): O=C(O)c1c2c(nc3ccccc13)/C(=C/c1ccc(O)cc1)CC2
- AC50 (Caspase-6): 2 µM (active)
- AC50 [8]: 6.44 µM (active)
- IC50 [9]: 124 µM (active)
- IC50 [10]: 18.4 µM (active)
- IC50 [11]: 3.85 µM (active)
- AC50 [12]: 6.42 µM (active)
- EC50 [13]: 33.3 µM (inactive)
- AC50 (HEK293 [14]): 1.93 µM (active)
- AC50 [15]: 9.03 µM (active)

Structure (SMILES): CCCC(=O)Nc1ncnc2c1ncn2[C@@H]1O[C@@H]2OP(=O)(O)OC[C@H]2[C@H]1OC(=O)CCC
- EC50 [16]: 6.7 µM (active)
- EC50 [17]: 9.1 µM (active)

Structure (SMILES): CC1CCN(c2ccc(-c3cccc(NC(=O)C(F)(F)F)c3)nn2)CC1
- AC50 [18]: 11.5 µM (active)
- AC50 [19]: 4.11 µM (active)
- AC50 [20]: 3.1 µM (active)
- EC50 [21]: 5.09 µM (inconclusive)
- EC50 [22]: 8.19 µM (active)
- AC50 (Paired box protein Pax-8): 3.37 µM (active)
- IC50 [23]: 8.01 µM (active)
- AC50 [24]: 32.2 µM (active)
- AC50 [25]: 2.55 µM (active)
- AC50 [26]: 36.5 µM (active)
- EC50 [27]: 0.475 µM (inconclusive)
- AC50 [28]: 44.1 µM (active)
- AC50 [29]: 29.2 µM (active)
- AC50 [30]: 2.74 µM (active)
- EC50 [31]: < 0.16 µM (active)
- AC50 [32]: 32 µM (active)

Structure (SMILES): Cc1oc(-c2ccccc2)nc1CSCC(=O)NC1CC1
- IC50 (HEK293 [33]): > 80 µM (inactive)
